Assay results as given in patent US20220047687A1, “CHEMICAL SCALPEL” (FUNDACIÓN INSTITUTO DE INVESTIGACIÓN SANITARIA FUNDACIÓN …, priority 2019, published 2022).
Entries after “also recorded” stand apart in the source; their conditions may differ.

Key:
[1] = tested on: tissue originating from patients with peritoneal carcinomatosis; assay: In vitro collagenase treatment of patient tumor tissue fragments; assay type: cell-based, human; details: for cells released from tissues: culture at 96 hours
Experimental: After obtaining authorization from the Committee for Research with Medicinal Products (PIC 75/2016_FJD) of Fundación Jiménez Díaz, the tissue originating from patients with peritoneal carcinomatosis who signed the consent was collected. Tissue fragments were included in multiwell plates and treated with 35 U/mL of collagenase for 30 minutes or for a period of 24 hrs, the cultures were then washed and cells obtained from the enzyme treatment were analyzed. The idea was to check at different times if mesothelial cells were obtained alone or tumor cells were obtained as well. FIG. 1.

[2] = tested on: mesothelial layer covering the intestinal tract; assay: First tests of peritoneal washing with collagenase on rat (Wistar); assay type: in vivo; details: optimum concentration and time (35 U/mL, 10-15 minutes)
Experimental: For the purpose of fine-tuning the volume of the cavity and the optimum treatment time so that no organ in the cavity will sustain any damage, twenty 6-week old Wistar rats weighing 250 grams were used, and they were tested at different concentrations of 35 U/mL of collagenase and 37 U/mL of collagenase for clinical use. Up until now, all the studies had been performed with collagenase for experimental use, nevertheless, the choice was made to use collagenase authorized for clinical use from now on, taking into account the potency equivalence calculations requested from the manufacturer. A study was then conducted using different times of treatment with collagenase from 2 minutes to 30 minutes (30, 20, 15, 10, 5, and 2) with n=2 in the 4 intermediate times.

[3] = tested on: peritoneal carcinomatosis (DHD cells); assay: Survival and necropsy of rats with carcinomatosis after peritoneal washing (groups D, E, F); assay type: in vivo, rat; details: group F, collagenase 37 U/ml, 3 animals
Experimental: (§1) The procedure was performed 2 times in the TCQ group, the first time with collagenase and after 2 minutes peritoneal washing with mitomycin C at the different concentrations to be tested was repeated. […] Blood was also collected from all the animals before sacrificing them, the blood was processed within the hour following its extraction to obtain plasma and to analyze, on one hand, the existence of the mutated KRAS oncogene (mutation in codon 12 of exon 1 expressed by DHD cells), and on the other hand the existence of collagenase traces or residues in blood after the peritoneal washes. A digital PCR was used for the KRAS oncogene localization study. For the collagenase trace study, the anonymized samples were sent to Lyposmol laboratories for the performance of specific anti-MMP-1 and anti-MMP-2 ELISAS.
Each group initially consisted of 6 rats (2×3).

mutated KRAS oncogene = assay: Digital PCR of KRAS in plasma; assay type: in vivo, rat; details: plasma
Experimental: as §1
To analyze the presence of mutated KRAS in the blood of the different groups by means of digital PCR, DNA was extracted from at least 2 ml of plasma/group by means of the QlAamp Circulating Nucleic Acid kit according to the manufacturer's data and the results were those listed in Table 4.

[4] = tested on: peritoneal adhesions (polypropylene mesh); assay: Peritoneal adhesion model group 1 (10 small polypropylene mesh pieces): mesh release; assay type: in vivo, rat
From the text: Intervention of 5 6-week old Wistar rats of a total of 10 rats belonging to a first group (Group 1). Prior inhalation anesthesia with Forane, the animal being shaved, and aseptic measures being implemented, a minimal opening is made in the skin and the abdominal wall to implant 10 small pieces of polypropylene mesh, five on each side of the midline. They are cut into small 0.5 cm^2 pieces previously wetted with pss (physiological saline solution (0.9% ClNa).
After that (two days later than the first intervention), intervention is performed on the remaining 5 Wistar rats of group 1, and identical follow-up of weight and wound progression, with the administration of analgesia for the next 72 hours.
Four months after the application of the intraperitoneal prostheses, the animals are operated on again for the phase final of the experiment. Before that blood is drawn. First, the experiments are performed on rats belonging to group 1. The study is randomized in pairs and single-blind (investigator). […] Next, the results obtained in each of the operated rats are collected: • 1. R13, 295 g: Dictation: “To the naked eye no meshes are found. At the mesentery and terminal ileum of the cecum there is an area that is folded over and apparently comprises small pieces of mesh. There are no adhesions to the closure of the abdominal wall. Non-traumatic entry.”

cytokines and chemokines = assay: Cytokines circulating in plasma after collagenase washing; assay type: in vivo, rat
Experimental: A new blood test was performed with the 10 rats in the 1st group. For each of them, blood was taken 15 days after surgery. Post-collagenase cytokines were analyzed.
A new blood test is performed on the 6 rats in the 2nd group on 26/07/2018 and on the 4 controls.
Post-collagenase cytokines are analyzed

peritoneal tissues = assay: Safety, histology and biochemistry in the adhesion model
Experimental: The concentration of collagenase used was 0.05% in PBS, with an application time of 20 min, in a volume of 20 ml, and at a temperature of 37° C. in a thermal blanket and with prior tempering of the drug.
Blood was drawn from all the rats by intracardiac puncture for biochemistry and cytokines.

## Collagenase
[1]; 35 U/mL
  effect of collagenase on tumor tissues in vitro: breaks the edges of the tissues, releasing mesothelial cells and limiting tumor vascularization
[1]; in vitro
  enzyme time beyond which tissues become damaged and viability of extracted cells is inhibited: exceeding 45 minutes
[1]; tissues digested for 30 minutes
  cells released from tissues: mesothelial cells released by collagenase
[1]; tissues digested for 24 hours
  cells released from tissues: release of cells with tumor morphology and highly refringent mesothelial cells
[2]
  macroscopic and histological findings: No organ or tissue impairment is observed histologically; also recorded: elimination of the mesothelial cells covering the intestine and omentum is observed but without the involvement of any organ; also recorded: thinning of the mesothelial layer covering the intestinal tract without the involvement of intermediate or internal layers
[3]; 1 month
  Observations (necropsy): Localized carcinomatoses in intestine; also recorded: No adhesions
[3]; 2 months
  Observations (necropsy): Localized carcinomatoses in abdomen; also recorded: with nodules in liver. No adhesions
Mutated KRAS oncogene; group A (healthy rats, collagenase 37 U/mL)
  Mutated KRAS event no.: 0
Mutated KRAS oncogene; group F (DHD + collagenase 37 U/mL)
  Mutated KRAS event no.: 1
[4]; 0.05% in PBS, 20 ml, 20 minutes, 37° C., single rats R11, R12, R17, R18, R19 in block order
  mesh and adhesion release after washing (dictation): one of the balls of hypochondrium loops breaks up with slight pulling and several pieces of mesh (3) are released; also recorded: mesh seen in the omentum is readily released with slight pulling. Another mesh in the suprapubic fat is dissected and released without damaging the fatty aggregate, 6 pieces of mesh being released with digital dissection and without bleeding; also recorded: One of the meshes contained in the ball of the terminal ileum separates completely with slight pulling; also recorded: Mesh separates from the hepatic omentum with slight pulling (there are two meshes, one of them is not readily separated successfully)
[4]; group 1, blind study randomized in pairs, 0.05%, PBS control 8%
  efficacy in extracting meshes: 42%
Cytokines and chemokines; anti-inflammatory cytokine
  IL4 in plasma vs PBS: Insignificant increase
  IL10 in plasma vs PBS: Insignificant increase
Cytokines and chemokines; at four months
  levels of all the cytokines and chemokines between the 2 groups: normalized
Cytokines and chemokines; chemokines
  G-CSF in plasma vs PBS: no difference
  GM-CSF in plasma vs PBS: no difference
  KC in plasma vs PBS: no difference
  M-MCF in plasma vs PBS: no difference
  MCP1 in plasma vs PBS: significant increase
  MIP3a in plasma vs PBS: no difference
  MIPla in plasma vs PBS: no difference
  RANTRES in plasma vs PBS: no difference
  VEGF in plasma vs PBS: significant increase
Cytokines and chemokines; pro-inflammatory cytokine
  IL12-p70 in plasma vs PBS: Significant increase (p<0.01)
  INF-gamma in plasma vs PBS: no differences
  TNF-alpha in plasma vs PBS: Significant increase (p<0.01)
Cytokines and chemokines; regulatory cytokine
  IL1a in plasma vs PBS: no difference
  IL1b in plasma vs PBS: no difference
  IL2 in plasma vs PBS: significant increase (p<0.05)
  IL5 in plasma vs PBS: no difference
  IL6 in plasma vs PBS: no difference
  IL7 in plasma vs PBS: no difference
  IL13 in plasma vs PBS: no difference
  IL17a in plasma vs PBS: no difference
  IL18 in plasma vs PBS: significant increase (p<0.05)
Peritoneal tissues; 37 mg/Kg for 20 minutes at 37° C. as a peritoneal washing, murine model
  release of adhesions (final conclusion): favors the release of adhesions
Peritoneal tissues; 0.05% in PBS, 20 min, 20 ml, 37° C.
  other relevant finding upon application of the treatment: pancreatic reaction
Peritoneal tissues; 0.05%, vigorous washing at 37° C. for 20 minutes, murine model
  safety of intraperitoneal application: safe for intraperitoneal application in a murine model, without associated mortality
Peritoneal tissues; 2 months after the use of drug or PBS
  analysis of the models at euthanasia, drug vs PBS: did not show any significant differences; also recorded: fewer adhesions did subjectively appear
Peritoneal tissues; animals with small or large meshes, peritoneal washing with collagenase
  histological study of tissues: are not affected
Peritoneal tissues; both study groups
  amylase: increases in both study groups
Peritoneal tissues; serial tests, immediately and at different points of control after the intervention
  biochemical or hematologic parameters: without finding significant differences with the control groups
